This is an account of results in US8889671B2, “Compounds and methods for treating bacterial infections” (AstraZeneca AB, priority 2013, dated 2014).

Experiment [1] deals with Escherichia coli DNA gyrase A/B tetramer (Escherichia coli (strain K12), UniProt P0AES4+P0AES6). Description: DNA gyrase supercoiling activity fluorescence polarisation assay. The experiment is classed as biochemical. As to conditions: 0.3 mM ATP. In short, it runs like this:
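Relaxed triplex-forming plasmid (130 micrograms/mL) supercoiled by 5 nM gyrase A/B tetramer in Tris-HCl pH 7.5 buffer with 4 mM MgCl2 and 0.3 mM ATP, ~30 min, ambient temperature. Quenched with 5′-BODIPY-FL triplex probe at pH 3.5; fluorescence anisotropy read after 60 min. IC50 by nonlinear regression against two control reactions.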
(In general: In fluorescence polarisation assays a small probe gives low polarisation when free and higher when bound to something large.)

Experiment [2] deals with Staphylococcus aureus. Briefly: Susceptibility testing (MIC) Assay 1, broth microdilution. The format is cell-based.
The subject of experiment [3] is Streptococcus pyogenes. Described as above. The format is cell-based. Particulars: Streptococcus pyrgenes, in vivo strain, read-out: Spy MIC.
Experiment [4] concerns Streptococcus pneumoniae. Described as above. The format is cell-based.
The test system of experiment [5] is Haemophilus influenzae. Description: Susceptibility testing (MIC) Assay 2, broth microdilution. The format is cell-based. As to conditions: ATCC 51907, in vivo strain, read-out: Hin MIC. For orientation: Broth dilution looks for growth in wells or tubes with falling amounts of substance.
The test system of experiment [6] is Pseudomonas aeruginosa. Described as above. The experiment is classed as cell-based. Particulars: for MIC: PAO1, read-out: Pae MIC; for Pae MIC: PAO1.
The test system of experiment [7] is Klebsiella pneumoniae. The description is as above. The experiment is classed as cell-based. As to conditions: clinical isolate, mucoid, read-out: Kpn MIC.
Experiment [8] deals with Escherichia coli. The experiment is described as above. Particulars: K12, read-out: Eco MIC. The experiment is classed as cell-based.
[9] abbreviates: Eco Gyr FP Mean IC50, E. coli DNA gyrase supercoiling.
Where [10] appears, read: Staphylococcus aureus, Staphylococcus aureus in vivo strain, MSQS, read-out: Sau(d) MIC.
Setting [11] is: Staphylococcus aureus, in vivo strain, MRQR, read-out: Sau(e) MIC.
[12] abbreviates: Staphylococcus aureus, serum, read-out: Sau(f) MIC.
[13] abbreviates: in vivo strain (footnote b), read-out: Spn(b) MIC.
[14] abbreviates: in vivo strain (footnote c), read-out: Spn(c) MIC.
Setting [15] is: ATCC51907, Haemophilus influenzae.
Where [16] appears, read: E. coli DNA gyrase supercoiling, read-out: Eco Gyr FP Mean IC50.
The mark [17] stands for this setting: Staphylococcus aureus in vivo strain, MSQS, read-out: Sau(d) MIC.

Converted amounts (≈) assume the structure as drawn. Read-outs that look alike come from different tables or passages of the source.

Turning to `C[C@@H]1CN2c3c(cc4c(N5C[C@@H](CO)OC5=O)noc4c3F)CC3(C(=O)NC(=O)NC3=O)[C@H]2[C@H](C)O1` [Example 26, (2R,4S,4aS)-11-Fluoro-8-((S)-5-(hydroxymethyl)-2-oxooxazolidin-3-yl)-2,4-dimethyl-2,4,4a,6-tetrahydro-1H,1′H-spiro[isoxazolo[4,5-g][1,4]oxazino[4,3-a]quinoline-5,5′-pyrimidine]-2′,4′,6′(3′H)-trione], in experiment [1] (setting [9]), half-maximal inhibition (IC50) was put at 170 nM. The MIC in experiment [2] (setting [10]) was 2.2 µM (≈ 1.11 µg/mL); in experiment [2] (setting [11]), 12 µM (≈ 6.04 µg/mL); in experiment [2] (setting [12]) it was 1.6 µM (≈ 0.806 µg/mL); in experiment [3] (Streptococcus pyogenes) it was under 0.2 µM; in experiment [4] (setting [13]), 0.28 µM (≈ 0.141 µg/mL); in experiment [4] (setting [14]) it was 0.55 µM (≈ 0.277 µg/mL). Further, the MIC in experiment [5] (setting [15]) was under 0.2 µM; in experiment [6], over 200 µM; in experiment [7], over 200 µM; in experiment [8], 25 µM (≈ 12.6 µg/mL).
As to `C[C@@H]1CN2c3c(cc4c(N5C(=O)OC[C@H]5C5CCOCC5)noc4c3F)CC3(C(=O)NC(=O)NC3=O)[C@H]2[C@H](C)O1` [Example 27], the IC50 – broadly, the concentration needed to halve the response being measured – in experiment [1] (setting [16]) is 530 nM. In addition, the MIC in experiment [2] (setting [17]) is given as 0.78 µM (≈ 0.435 µg/mL); in experiment [2] (setting [11]) it was 3.1 µM (≈ 1.73 µg/mL); in experiment [2] (setting [12]) it was 1.6 µM (≈ 0.892 µg/mL); in experiment [3], 0.78 µM (≈ 0.435 µg/mL); in experiment [4] (setting [13]), 0.78 µM (≈ 0.435 µg/mL); in experiment [4] (setting [14]) it was 0.78 µM (≈ 0.435 µg/mL). Moreover, the MIC was 0.39 µM (≈ 0.217 µg/mL) in experiment [5], over 200 µM in experiment [7] and 100 µM (≈ 55.8 µg/mL) in experiment [8]. For the same compound, the “Pae MIC” value in experiment [6] was over 200 µM.
As for `C[C@@H]1CN2c3c(cc4c(N5C(=O)OC[C@@H]5C5CCOCC5)noc4c3F)CC3(C(=O)NC(=O)NC3=O)[C@H]2[C@H](C)O1` [Example 28], the IC50 in experiment [1] (setting [16]) is over 2100 nM. In addition, the MIC amounted to 25 µM (≈ 13.9 µg/mL) in experiment [2] (setting [17]); 50 µM (≈ 27.9 µg/mL) in experiment [2] (setting [11]); 50 µM (≈ 27.9 µg/mL) in experiment [2] (setting [12]); 25 µM (≈ 13.9 µg/mL) in experiment [3]; 25 µM (≈ 13.9 µg/mL) in experiment [4] (setting [13]); 25 µM (≈ 13.9 µg/mL) in experiment [4] (setting [14]). Further, the MIC in experiment [5] is on record as 25 µM (≈ 13.9 µg/mL); in experiment [7], over 200 µM; in experiment [8], over 200 µM. The “Pae MIC” value in experiment [6] was over 200 µM.
`C[C@@H]1CN2c3c(cc4c(N5C(=O)OC[C@@H]5CCCO)noc4c3F)CC3(C(=O)NC(=O)NC3=O)[C@H]2[C@H](C)O1` [Example 29, (2R,4S,4aS)-11-Fluoro-8-((S)-4-(3-hydroxypropyl)-2-oxooxazolidin-3-yl)-2,4-dimethyl-2,4,4a,6-tetrahydro-1H,1′H-spiro[isoxazolo[4,5-g][1,4]oxazino[4,3-a]quinoline-5,5′-pyrimidine]-2′,4′,6′(3′H)-trione] came in with an IC50 in experiment [1] (setting [9]) of 270 nM. In addition, the MIC in experiment [2] (setting [10]) was found to be 3.1 µM (≈ 1.65 µg/mL); in experiment [2] (setting [11]) it was 12 µM (≈ 6.38 µg/mL); in experiment [2] (setting [12]), 3.1 µM (≈ 1.65 µg/mL); in experiment [3] (Streptococcus pyogenes) it was 0.39 µM (≈ 0.207 µg/mL); in experiment [4] (setting [13]), 0.39 µM (≈ 0.207 µg/mL); in experiment [4] (setting [14]), 0.78 µM (≈ 0.415 µg/mL). Moreover, the MIC in experiment [5] (setting [15]) was 0.78 µM (≈ 0.415 µg/mL); in experiment [6] it was over 200 µM; in experiment [7], over 200 µM; in experiment [8], 100 µM (≈ 53.1 µg/mL).
Turning to `C[C@@H]1CN2c3c(cc4c(N5C(=O)OC[C@@H]5CCCF)noc4c3F)CC3(C(=O)NC(=O)NC3=O)[C@H]2[C@H](C)O1` [Example 30, (2R,4S,4aS)-11-Fluoro-8-((S)-4-(3-fluoropropyl)-2-oxooxazolidin-3-yl)-2,4-dimethyl-2,4,4a,6-tetrahydro-1H,1′H-spiro[isoxazolo[4,5-g][1,4]oxazino[4,3-a]quinoline-5,5′-pyrimidine]-2′,4′,6′(3′H)-trione], the IC50 in experiment [1] (setting [9]) turned out to be 500 nM. The MIC was under 0.2 µM in experiment [2] (setting [10]); 0.78 µM (≈ 0.416 µg/mL) in experiment [2] (setting [11]); 0.78 µM (≈ 0.416 µg/mL) in experiment [2] (setting [12]); 0.39 µM (≈ 0.208 µg/mL) in experiment [3] (Streptococcus pyogenes); 0.39 µM (≈ 0.208 µg/mL) in experiment [4] (setting [13]); 0.39 µM (≈ 0.208 µg/mL) in experiment [4] (setting [14]). Besides, the MIC was 0.39 µM (≈ 0.208 µg/mL) in experiment [5] (setting [15]), over 200 µM in experiment [6], 200 µM (≈ 107 µg/mL) in experiment [7] and 25 µM (≈ 13.3 µg/mL) in experiment [8].
As for `C[C@@H]1CN2c3c(cc4c(N5C(=O)OC[C@@H]5CCO)noc4c3F)CC3(C(=O)NC(=O)NC3=O)[C@H]2[C@H](C)O1` [Example 31, (2R,4S,4aS)-11-Fluoro-8-((S)-4-(2-hydroxyethyl)-2-oxooxazolidin-3-yl)-2,4-dimethyl-2,4,4a,6-tetrahydro-1H,1′H-spiro[isoxazolo[4,5-g][1,4]oxazino[4,3-a]quinoline-5,5′-pyrimidine]-2′,4′,6′(3′H)-trione], 420 nM corresponded to half-maximal inhibition in experiment [1] (setting [9]) (IC50). Also, the MIC was found to be 3.1 µM (≈ 1.6 µg/mL) in experiment [2] (setting [10]); 12 µM (≈ 6.21 µg/mL) in experiment [2] (setting [11]); 3.1 µM (≈ 1.6 µg/mL) in experiment [2] (setting [12]); 0.39 µM (≈ 0.202 µg/mL) in experiment [3] (Streptococcus pyogenes); 0.78 µM (≈ 0.404 µg/mL) in experiment [4] (setting [13]); 0.78 µM (≈ 0.404 µg/mL) in experiment [4] (setting [14]). For the same compound, the MIC in experiment [5] (setting [15]) was 0.39 µM (≈ 0.202 µg/mL); in experiment [6], over 200 µM; in experiment [7], over 200 µM; in experiment [8] it was 100 µM (≈ 51.7 µg/mL).
`C[C@@H]1CN2c3c(cc4c(N5C[C@@H](CF)OC5=O)noc4c3Cl)CC3(C(=O)NC(=O)NC3=O)[C@H]2[C@H](C)O1` [Example 32, (2R,4S,4aS)-11-Chloro-8-((S)-5-(fluoromethyl)-2-oxooxazolidin-3-yl)-2,4-dimethyl-2,4,4a,6-tetrahydro-1H,1′H-spiro[isoxazolo[4,5-g][1,4]oxazino[4,3-a]quinoline-5,5′-pyrimidine]-2′,4′,6′(3′H)-trione]: in experiment [1] (setting [9]), the IC50 worked out at 630 nM. Also, the MIC is under 0.2 µM in experiment [2] (setting [10]); 0.78 µM (≈ 0.407 µg/mL) in experiment [2] (setting [11]); 0.39 µM (≈ 0.204 µg/mL) in experiment [2] (setting [12]); under 0.2 µM in experiment [3] (Streptococcus pyogenes); 0.39 µM (≈ 0.204 µg/mL) in experiment [4] (setting [13]); 0.39 µM (≈ 0.204 µg/mL) in experiment [4] (setting [14]). Besides, the MIC in experiment [5] (setting [15]) was 0.27 µM (≈ 0.141 µg/mL); in experiment [6], 200 µM (≈ 104 µg/mL); in experiment [7], 200 µM (≈ 104 µg/mL); in experiment [8], 1.5 µM (≈ 0.783 µg/mL).
With `C[C@@H]1CN2c3c(cc4c(N5C(=O)OC[C@@H]5CCCO)noc4c3Cl)CC3(C(=O)NC(=O)NC3=O)[C@H]2[C@H](C)O1` [Example 33, (2R,4S,4aS)-11-Chloro-8-((S)-4-(3-hydroxpropyl)-2-oxooxazolidin-3-yl)-2,4-dimethyl-2,4,4a,6-tetrahydro-1H,1′H-spiro[isoxazolo[4,5-g][1,4]oxazino[4,3-a]quinoline-5,5′-pyrimidine]-2′,4′,6′(3′H)-trione], in experiment [1] (setting [16]), the IC50 turned out to be 260 nM. Also, the MIC in experiment [2] (setting [17]) was 3.1 µM (≈ 1.7 µg/mL); in experiment [2] (setting [11]), 12 µM (≈ 6.58 µg/mL); in experiment [2] (setting [12]), 6.2 µM (≈ 3.4 µg/mL); in experiment [3], 0.39 µM (≈ 0.214 µg/mL); in experiment [4] (setting [13]) it was 0.39 µM (≈ 0.214 µg/mL); in experiment [4] (setting [14]) it was 0.39 µM (≈ 0.214 µg/mL). The MIC in experiment [5] is given as 0.78 µM (≈ 0.427 µg/mL); in experiment [7] it was over 200 µM; in experiment [8], 100 µM (≈ 54.8 µg/mL). The “Pae MIC” value in experiment [6] was over 200 µM.
In experiment [1] (setting [9]), `C[C@@H]1CN2c3c(cc4c(N5C(=O)OC[C@@H]5CCCF)noc4c3Cl)CC3(C(=O)NC(=O)NC3=O)[C@H]2[C@H](C)O1` [Example 34, (2R,4S,4aS)-11-Chloro-8-((S)-4-(3-fluoropropyl)-2-oxooxazolidin-3-yl)-2,4-dimethyl-2,4,4a,6-tetrahydro-1H,1′H-spiro[isoxazolo[4,5-g][1,4]oxazino[4,3-a]quinoline-5,5′-pyrimidine]-2′,4′,6′(3′H)-trione] showed an IC50 of 230 nM. In addition, the MIC in experiment [2] (setting [10]) is under 0.2 µM; in experiment [2] (setting [11]) it was 0.78 µM (≈ 0.429 µg/mL); in experiment [2] (setting [12]), 1.6 µM (≈ 0.88 µg/mL); in experiment [3] (Streptococcus pyogenes), 0.39 µM (≈ 0.214 µg/mL); in experiment [4] (setting [13]), 0.39 µM (≈ 0.214 µg/mL); in experiment [4] (setting [14]), 0.39 µM (≈ 0.214 µg/mL). In addition, the MIC in experiment [5] (setting [15]) was 0.39 µM (≈ 0.214 µg/mL); in experiment [6], over 200 µM; in experiment [7], 200 µM (≈ 110 µg/mL); in experiment [8] it was 25 µM (≈ 13.7 µg/mL).
